Patent US7910623B2, “Synthesis of scabronines and analogues thereof” (Sloan-Kettering Institute for Cancer Research, priority 2008, dated 2011)
Entries after “also recorded” stand apart in the source; their conditions may differ. Like-named read-outs stand apart in the source and are kept apart here.

Key:
[1] = tested on: PC-12 cells; experiment: Neurite outgrowth of PC-12 cells cultured in compound-conditioned 1321N1 medium; assay type: cell-based, rat; details: 1321N1 medium conditioned with compound at 30 μM for 48 hours, PC-12 3 days; for neurite outgrowth of PC-12 cells: vs DMSO control
Procedure: (§1) The 1321N1 human astrocytoma cells were cultured in Dulbecco's modified Eagles's medium (DMEM) supplemented with 2 mM L-Glutamine and 10% fetal bovine serum (FBS). PC-12 cells were grown in F-12K medium supplemented with 15% horse serum and 2.5% FBS. For compound treatment, 1321N1 cells were incubated with compounds 2 and 8 at 30 μM for 48 hours in DMEM medium. The resulting conditioned media from the 1321N1 cells were used to culture PC-12 cell for induction of PC-12 neurite outgrowth. After 3 days incubation, PC-12 cells were washed with phosphate-buffered saline (PBS) and fixed with 4% paraformaldeyde. Neurites were observed under a phase-contrast ECLIPSE TE2000-S Nikon microscope.
The differentiation of PC-12 cells was scored as follows: cells without neurites were scored 0; cells with neurites as long as one cell body diameter were scored 1; cells with neurites 2-3 times longer than their cell body diameter were scored 2; and cells with neurites that were extremely long or forming a network were scored 3. The mean of differentiation scores were obtained from 200 cells (4 wells) under the phase-contrast microscope. Data are expressed as means±S.E.M (standard error of mean). Values represent the Means±S.E.M. for four wells.

[2] = tested on: 1321N1 human glial cells; experiment: Biosynthesis and secretion of neurotrophic factors from 1321N1 cells treated with compound; assay type: cell-based; details: 30 μM, 48 hours
Procedure: as §1

[3] = tested on: rat pheochromocytoma cells (PC-12); details: cited from earlier work
[4] = tested on: 1321N1 human astroglial cells; details: cited from earlier work

Row | SMILES | neurite outgrowth of PC-12 cells compared with compound 2 or purified NGF (50 ng/mL) [1] | neurite outgrowth of PC-12 cells [1] | biosynthesis and secretion of neurotrophic factors [2] | neuronal differentiation of PC-12 cells [3] | production and excretion of nerve growth factor (NGF) [4] | production and excretion of nerve growth factor (NGF) ([4]; listed as scabronine G)
1 | COC(=O)[C@]12CCC(C(C)C)=C1[C@H]1CCC(C=O)=CC(=O)[C@]1(C)CC2 [Compound 8] | greater activity as evidenced by increased neurite length; also recorded: comparable to those produced by direct exposure of PC-12 cells to purified NGF; also recorded: greater potency than compound 2 | significantly induced neurite outgrowth |  |  |  | 
2 | COC(=O)[C@]12CCC(C(C)C)=C1[C@H]1CC=C(C=O)CC(=O)[C@]1(C)CC2 [Compound 2, Scabronine G Methyl Ester] | comparable to those produced by direct exposure of PC-12 cells to purified NGF; also recorded: same degree of neurite outgrowth as that of 50 ng/mL of NGF | significant neurite outgrowth; also recorded: significantly induced neurite outgrowth | effectively enhanced the biosynthesis and secretion of neurotrophic factors | dramatic neuronal differentiation |  | 
3 | CC(C)C1=C2[C@H]3CC=C(C=O)CC(=O)[C@]3(C)CC[C@@]2(C(=O)O)CC1 [Compound 1, Scabronine G] |  |  |  | dramatic neuronal differentiation | induce the production and excretion of nerve growth factor (NGF) | induces the production and excretion of nerve growth factor (NGF)
